From patent US20120171213A1, “METHOD OF TREATING TUMORS” (Yissum Research Development Company of the Hebrew …, priority 2009, published 2012)

How the values were obtained:
[1] = system: hES-cell teratoma-derived tumor cells (WA09, TE06); assay: Annexin V / PI flow cytometry for apoptosis after Taxol and Purvalanol A treatment in vitro; assay type: cell-based, human; conditions: 0.2 µM Taxol 16 hours and/or 10 µM Purvalanol A 16 hours, sequential, versus DMSO, n=5
Experimental: FACS: Annexin V and PI staining for apoptosis detection was performed using the Annexin V-PE kit (Bender MedSystems) according to the manufacturer's instructions. FACS analysis was performed using FACSCaliber system (Becton Dickinson). Analysis was performed on […] software (Becton Dickinson). Forward and side scatter plots were used to exclude debris from the histogram analysis.
The medium was then replaced with a medium containing […] Purvalanol A (Sigma), and the cells were cultured for an additional 16 hours. Other wells were treated with either Taxol for 16 hours followed by DMSO (the solution vehicle) for 16 hours or DMSO for 16 hours followed by Purvalanol A for 16 hours. Control wells were treated twice with DMSO at the same time points. Mice bearing hES-cell teratomas for 30 d were injected intraperitoneally with 7 mg/kg Taxol and 24 hours later were injected with 60 mg/kg Purvalanol A. Reagents were injected in a solution of DMSO/PEG400 at 1:1 ratio. Control mice received vehicle injections at the same time points. Mice were euthanized 18 hours after the last injection. Fresh frozen […] teratoma sections were subjected to TUNEL using the ApoAlert DNA Fragmentation Assay Kit (Clontech) according to the manufacturer's instructions.

tumor cell = conditions: both in vitro and in vivo; cited from earlier work

SMILES	fold increase in apoptotic cells (Annexin V positive) [1]	tumor cell death by apoptosis (tumor cell)
CC(C)[C@H](CO)Nc1nc(Nc2cccc(Cl)c2)c2ncn(C(C)C)c2n1 [Purvalanol A]	no significant effect	negligible results
CC(=O)O[C@H]1C(=O)[C@@]2(C)[C@H]([C@H](OC(=O)c3ccccc3)[C@]3(O)C[C@H](OC(=O)[C@H](O)[C@@H](NC(=O)c4ccccc4)c4ccccc4)C(C)=C1C3(C)C)[C@]1(OC(C)=O)CO[C@@H]1C[C@@H]2O [Taxol]	–	negligible results
